# From patent US20230272357A1, “METHODS OF GENOME EDITING INCLUDING CONTROLLED OPENING OF CHROMATIN” (Wisconsin Alumni Research Foundation, priority 2021, published 2023)
# What was measured:
# Assay type in all cases: cell-based, human
# iPSCs [1] = assay: Single-cell ATAC sequencing, local chromatin accessibility; details: upon TSA treatment, data not shown
# Method: Briefly, 1,50,000 cells were added to a 2 mL microcentrifuge tube and centrifuged at 300 g for 45 min at 4° C. The supernatant was removed without disrupting the cell pellet, and 100 μL chilled Lysis Buffer (10 mM Tris-HCl (pH 7.4), 10 mM NaCl, 3 mM MgCl2, 0.1% Tween-20, 0.1% Nonidet® P40 Substitute, 0.01% digitonin and 1% BSA) was added and mixed 10 times. The microcentrifuge tube was then incubated on ice for 5 min. Following lysis, 1 ml chilled Wash Buffer (10 mM Tris-HCl (pH 7.4), 10 mM NaCl, 3 mM MgCl2, 0.1% Tween-20 and 1% BSA) was added and the resulting solution was mixed 5 times. Nuclei were centrifuged at 500 g for 5 min at 4° C. and the supernatant was removed without disrupting the nuclei pellet. Nuclei were resuspended in chilled Diluted Nuclei Buffer (10× Genomics; 2000153) at approximately 6,000 nuclei per μL. The resulting nuclei concentration was then determined with a Countess® II FL Automated Cell Counter using trypan blue inclusion. Nuclei were then immediately used to generate scATAC-seq libraries according to the Chromium Single Cell ATAC Reagent Kits User Guide v1.1 (10× Genomics; 000209 Rev D). Libraries were sequenced using the Illumina NovaSeq 6000 system using S1 flow cell and target depth of 30k-37k reads/nuclei. FASTQ files were aligned with Cellranger ATAC 2.0 to custom reference Human GRCh38 genome. […]
# iPSCs [2] = assay: Cell viability by Ghost Dye Red 780 flow cytometry
# Method: Cell viability: Flow cytometry was performed using Ghost Dye™ Red 780 viability dye (Tonbo Biosciences) to determine the dose range of the TSA that can be administrated to the cells without affecting cell viability. iPSCs (15,000 per well) were cultured overnight and incubated with TSA in 96-well plates for 24 h. The next day, cells were singularized using Accutase™ (STEMCELL technologies), washed with PBS, centrifuged at 300 g for 5 minutes, and Ghost Dye™ Red 780 viability dye was added at 1:1000 concentration for 20 minutes at room temperature. Cells were then washed with PBS, spun down at 300g for 5 minutes, and resuspended in 300 μL of PBS. Cells were run on an Attune NxT™ flow cytometer (Thermo Fisher Scientific) and subsequent analysis was performed using Flowjo software (BD).
# Flow cytometry and fluorescence activated cell sorting: Flow cytometry was performed on singularized iPSCs using Attune™ Nxt flow cytometer (ThermoFisher Scientific) and analyzed using the FlowJo Software. Ghost Dye™ Red 780, ATTO 550, and GFP fluorescence were detected using 780/60, 585/16, and 530/30 filters in […] positions, respectively. Gates were established by running singularized untransfected iPSCs. The percentage of viable cells was calculated as the ratio of Ghost Dye™ Red 780-cells to the total number of single cells. Transfection efficiency was calculated as the percentage of ATTO 550+ cells to the total number of viable cells on day 2 post-transfection. Gene editing efficiency was calculated as the percentage of GFP-cells to the total number of viable cells on day 6 post-transfection. For the sorting experiments, iPSCs were singularized 6 days post-transfection using Accutase™, washed with PBS+20 μM ROCK inhibitor, centrifuged at 300 g for 5 minutes. Ghost Dye™ Red 780 viability dye (Tonbo Biosciences) was then added at 1:1000 concentration for 20 minutes at room temperature. Cells were washed again with PBS+20 μM ROCK inhibitor, spun down at 300 g for 5 minutes, and resuspended in 300 μL of FACS buffer (PBS+2% BSA+20 μM ROCK inhibitor). GFP-cells were then sorted into tubes containing mTeSR1+20 μM ROCK inhibitor, and seeded onto Matrigel®-coated 6 well polystyrene plates at 100 cells/well to obtain single-cell iPSC clones.
# iPSCs [3] = assay: iPSC morphology during long-term culture of edited cells; details: long-term culture of the edited cells, 6.25 ng/mL TSA
structure (smiles),measurement,setting,value
"CC(/C=C/C(=O)NO)=C\[C@@H](C)C(=O)c1ccc(N(C)C)cc1 [TSA, Trichostatin A]",Local chromatin accessibility at the off-target sites,iPSCs [1],no significant increase
same,Local chromatin accessibility at the on-target sites,iPSCs [1],increase
same,Cell toxicity,"iPSCs [2]; 12.5 ng/mL TSA, FIG. 1E",higher cell toxicity
same,Cell viability (% GhostDye- cells/total cells),"iPSCs [2]; TSA 0, 3.13, 6.25, 12.5 ng/mL, FIG. 1D",decreases
same,Cell viability,"iPSCs [2]; iPSCs, TSA 0-200 ng/mL, data not shown",decreased with the increase in TSA concentration
same,TSA concentration with considerable decrease in cell viability,"iPSCs [2]; iPSCs, TSA range 0-200 ng/mL tested",> 25 ng/mL
same,iPSC morphology,iPSCs [3],no changes
